# Results reported in the supplement of paper PMC10307832.
# Legend:
# Assay in all cases: relative viability (nuclei count vs DMSO), 5 days (fraction); higher = more cells survive
# LCLC-103H = system: LCLC-103H
# Method in brief: (§1)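 Lung cancer cell lines, seeded in 1536-well plates, were treated the following day by pin tool with a single drug or with five library-drug doses (not always all listed) in √10 steps on top of a fixed anchor-drug dose. Cells were fixed and nuclei stained in one step after 5 days, and nuclei were counted. Relative viability is the nuclei count for treated wells divided by that for vehicle wells, reported as medians of duplicate plates.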
# EPLC-272H = system: EPLC-272H
# Method in brief: as §1
# NCI-H2405 = system: NCI-H2405
# Method in brief: as §1
# NCI-H2126 = system: NCI-H2126
# Method in brief: as §1
# EMC-BAC-2 = system: EMC-BAC-2
# Method in brief: as §1
# SW 900 = system: SW 900
# Method in brief: as §1
# NCI-H3122 = system: NCI-H3122
# Method in brief: as §1
# NCI-H1666 = system: NCI-H1666
# Method in brief: as §1
# HCC-44 = system: HCC-44
# Method in brief: as §1
# NCI-H23 = system: NCI-H23
# Method in brief: as §1
# SK-LU-1 = system: SK-LU-1
# Method in brief: as §1
# NCI-H1975 = system: NCI-H1975
# Method in brief: as §1
# LK-2 = system: LK-2
# Method in brief: as §1
# LU99A = system: LU99A
# Method in brief: as §1
# SW 1573 = system: SW 1573
# Method in brief: as §1
# RERF-LC-KJ = system: RERF-LC-KJ
# Method in brief: as §1
# HCC-827 = system: HCC-827
# Method in brief: as §1
# NCI-H1563 = system: NCI-H1563
# Method in brief: as §1
# LXF-289 = system: LXF-289
# Method in brief: as §1
# LOU-NH91 = system: LOU-NH91
# Method in brief: as §1
# NCI-H2085 = system: NCI-H2085
# Method in brief: as §1
# ChaGo-K-1 = system: ChaGo-K-1
# Method in brief: as §1
structure (smiles),measurement,setting,value
C[C@@H]1CN(CC(=O)Nc2ccc3c(c2)Cc2cccc(-c4cc(=O)cc(N5CCOCC5)o4)c2S3)C[C@H](C)O1 + CCNC(=O)c1noc(-c2cc(C(C)C)c(O)cc2O)c1-c1ccc(CN2CCOCC2)cc1 [Luminespib] (partner 0.01 µM),relative viability,LCLC-103H; first compound 0.04 µM,0.949
same,relative viability,LCLC-103H; first compound 0.1265 µM,0.971
same,relative viability,LCLC-103H; first compound 0.4 µM,0.906
same,relative viability,LCLC-103H; first compound 4 µM,0.72
same,relative viability,EPLC-272H; first compound 0.04 µM,0.519
same,relative viability,EPLC-272H; first compound 0.1265 µM,0.381
same,relative viability,EPLC-272H; first compound 0.4 µM,0.26
same,relative viability,EPLC-272H; first compound 4 µM,0.254
same,relative viability,NCI-H2405; first compound 0.04 µM,0.648
same,relative viability,NCI-H2405; first compound 0.1265 µM,0.744
same,relative viability,NCI-H2405; first compound 0.4 µM,0.726
same,relative viability,NCI-H2405; first compound 4 µM,0.612
same,relative viability,NCI-H2126; first compound 0.04 µM,1.04
same,relative viability,NCI-H2126; first compound 0.1265 µM,0.881
same,relative viability,NCI-H2126; first compound 0.4 µM,0.863
same,relative viability,NCI-H2126; first compound 4 µM,0.744
same,relative viability,EMC-BAC-2; first compound 0.04 µM,1.28
same,relative viability,EMC-BAC-2; first compound 0.1265 µM,1.17
same,relative viability,EMC-BAC-2; first compound 0.4 µM,1.08
same,relative viability,EMC-BAC-2; first compound 4 µM,1.19
same,relative viability,SW 900; first compound 0.04 µM,0.166
same,relative viability,SW 900; first compound 0.1265 µM,0.165
same,relative viability,SW 900; first compound 0.4 µM,0.169
same,relative viability,SW 900; first compound 4 µM,0.178
same,relative viability,NCI-H3122; first compound 0.04 µM,0.0752
same,relative viability,NCI-H3122; first compound 0.1265 µM,0.102
same,relative viability,NCI-H3122; first compound 0.4 µM,0.0706
same,relative viability,NCI-H3122; first compound 4 µM,0.0744
same,relative viability,NCI-H1666; first compound 0.04 µM,1
same,relative viability,NCI-H1666; first compound 0.1265 µM,1.09
same,relative viability,NCI-H1666; first compound 0.4 µM,1.12
same,relative viability,NCI-H1666; first compound 4 µM,0.905
same,relative viability,HCC-44; first compound 0.04 µM,0.9
same,relative viability,HCC-44; first compound 0.1265 µM,1.04
same,relative viability,HCC-44; first compound 0.4 µM,1.19
same,relative viability,HCC-44; first compound 4 µM,0.949
same,relative viability,NCI-H23; first compound 0.04 µM,0.205
same,relative viability,NCI-H23; first compound 0.1265 µM,0.213
same,relative viability,NCI-H23; first compound 0.4 µM,0.227
same,relative viability,NCI-H23; first compound 4 µM,0.178
same,relative viability,SK-LU-1; first compound 0.04 µM,0.222
same,relative viability,SK-LU-1; first compound 0.1265 µM,0.203
same,relative viability,SK-LU-1; first compound 0.4 µM,0.23
same,relative viability,SK-LU-1; first compound 4 µM,0.167
same,relative viability,NCI-H1975; first compound 0.04 µM,0.289
same,relative viability,NCI-H1975; first compound 0.1265 µM,0.199
same,relative viability,NCI-H1975; first compound 0.4 µM,0.26
same,relative viability,NCI-H1975; first compound 4 µM,0.158
same,relative viability,LK-2; first compound 0.1265 µM,0.202
same,relative viability,LK-2; first compound 0.4 µM,0.24
same,relative viability,LK-2; first compound 4 µM,0.188
same,relative viability,LU99A; first compound 0.04 µM,0.304
same,relative viability,LU99A; first compound 0.1265 µM,0.192
same,relative viability,LU99A; first compound 0.4 µM,0.26
same,relative viability,LU99A; first compound 4 µM,0.231
same,relative viability,SW 1573; first compound 0.04 µM,0.215
same,relative viability,SW 1573; first compound 0.1265 µM,0.386
same,relative viability,SW 1573; first compound 0.4 µM,0.207
same,relative viability,SW 1573; first compound 4 µM,0.366
same,relative viability,RERF-LC-KJ; first compound 0.04 µM,1.18
same,relative viability,RERF-LC-KJ; first compound 0.1265 µM,1.18
same,relative viability,RERF-LC-KJ; first compound 0.4 µM,1.19
same,relative viability,RERF-LC-KJ; first compound 4 µM,0.709
same,relative viability,HCC-827; first compound 0.04 µM,0.547
same,relative viability,HCC-827; first compound 0.1265 µM,0.469
same,relative viability,HCC-827; first compound 0.4 µM,0.915
same,relative viability,HCC-827; first compound 4 µM,0.681
same,relative viability,NCI-H1563; first compound 0.04 µM,0.512
same,relative viability,NCI-H1563; first compound 0.1265 µM,0.514
same,relative viability,NCI-H1563; first compound 0.4 µM,0.477
same,relative viability,NCI-H1563; first compound 4 µM,0.514
same,relative viability,LXF-289; first compound 0.04 µM,0.657
same,relative viability,LXF-289; first compound 0.1265 µM,0.645
same,relative viability,LXF-289; first compound 0.4 µM,0.714
same,relative viability,LXF-289; first compound 4 µM,0.73
same,relative viability,LOU-NH91; first compound 0.04 µM,0.39
same,relative viability,LOU-NH91; first compound 0.1265 µM,0.358
same,relative viability,LOU-NH91; first compound 0.4 µM,0.3
same,relative viability,LOU-NH91; first compound 4 µM,0.371
same,relative viability,NCI-H2085; first compound 0.04 µM,0.477
same,relative viability,NCI-H2085; first compound 0.1265 µM,0.509
same,relative viability,NCI-H2085; first compound 0.4 µM,0.404
same,relative viability,NCI-H2085; first compound 4 µM,0.397
same,relative viability,ChaGo-K-1; first compound 0.04 µM,0.598
same,relative viability,ChaGo-K-1; first compound 0.1265 µM,0.596
same,relative viability,ChaGo-K-1; first compound 0.4 µM,0.512
same,relative viability,ChaGo-K-1; first compound 4 µM,0.394
